According to ChEMBL document CHEMBL4257587 (J Med Chem, 2018):
Values after ≈ are worked out from the molar mass of the structure shown.

What was measured:
[1] = test system: Mycobacterium tuberculosis; assay: Antimycobacterial activity against Mycobacterium tuberculosis H37Rv ATCC 25618 after 6 days by resazurin-based assay; format: functional; conditions: H37Rv ATCC 25618, 144 h
[2] = Intrinsic clearance in mouse liver microsomes at 0.5 uM preincubated with NADPH and measured up to 30 mins by LC-MS/MS analysis; format: ADME, microsome
[3] = Intrinsic clearance in human liver microsomes at 0.5 uM preincubated with NADPH and measured up to 30 mins by LC-MS/MS analysis; format: ADME, microsome
HepG2 [4] = assay: Cytotoxicity against human HepG2 cells assessed as effect on membrane permeability after 48 hrs by TOTO-3 iodide-staining based cell health assay; format: ADME; conditions: HepG2, 48 h
HepG2 [5] = assay: Cytotoxicity against human HepG2 cells assessed as effect on mitochondrial membrane potential after 48 hrs by TMRM-staining based cell health assay; format: ADME; conditions: HepG2, 48 h
HepG2 [6] = assay: cells; format: ADME, cell-based; conditions: Homo sapiens, HepG2, 48 h
Description: Cytotoxicity against human HepG2 cells assessed as effect on nuclear morphology after 48 hrs by Hoechst 33342-staining based cell health assay

physchem = conditions: buffer, pH 7.4

| Compound | MIC90 [1] | CLH [2] | CLH [3] | also measured |
| --- | --- | --- | --- | --- |
| O=C(Nc1ccc2c(c1)OCCO2)N1CCC2(CC1)OCCc1sccc12 | > 10 µM |  |  |  |
| CC1(CCNCc2ccc3c(c2)OCCO3)OCCc2sccc21 (configuration not stated) | > 5 µM |  |  |  |
| COc1ccc2c(c1)CCOC21CCN(Cc2ccc3c(c2)OCCO3)CC1 | > 10 µM |  |  |  |
| Cc1cccc(CN2CCC3(CC2)OCCc2sccc23)c1 | 0.63 µM (≈ 0.197 µg/mL) | > 30 mL/min/g | 5.2 mL/min/g |  |
| c1cc2c(s1)CCOC21CCN(Cc2ccc3c(c2)CCCC3)CC1 | 0.02 µM (≈ 0.00707 µg/mL) | > 30 mL/min/g | 22.6 mL/min/g |  |
| CN1C(=O)C=CCC12CCN(Cc1ccc(Oc3ccc(OC(F)(F)F)cc3)cc1)CC2 | > 5 µM |  |  | IC50 (HepG2 [4]): 29.2 µM; IC50 (HepG2 [5]): 36.3 µM; IC50 (HepG2 [6]): 39.4 µM; solubility kinetic at 1 h (physchem): 87 µM (≈ 38.8 µg/mL) |
| FC(F)(F)Oc1ccc(Oc2ccc(CN3CCC4(CCCO4)CC3)cc2)cc1 | 1.3 µM (≈ 0.53 µg/mL) | 0.6 mL/min/g | 1.5 mL/min/g | IC50 (HepG2 [4]): 133 µM; IC50 (HepG2 [5]): 141 µM; IC50 (HepG2 [6]): 96.9 µM |
| CC(C)(C)c1ccc(CN2CCC3(CC2)OCCc2sccc23)cc1 | 0.02 µM (≈ 0.00711 µg/mL) | > 30 mL/min/g | 9.9 mL/min/g |  |
| c1cc2c(s1)CCOC21CCN(Cc2cnc3c(c2)OCCO3)CC1 | > 5 µM |  |  |  |
| O=C(c1ccc2c(c1)OCCO2)N1CCC2(CC1)OCCc1sccc12 | > 80 µM |  |  |  |
| c1ccc2c(c1)CCOC21CCN(Cc2ccc3c(c2)OCCO3)CC1 | 0.94 µM (≈ 0.33 µg/mL) |  |  |  |
| c1cc2c(s1)CCOC21CCN(Cc2ccc3c(c2)CCCO3)CC1 | 0.23 µM (≈ 0.0818 µg/mL) | > 30 mL/min/g | 2.9 mL/min/g |  |
| c1cc2c(s1)CCOC21CCNCC1 | > 5 µM |  |  |  |
| Cc1ccc(CN2CCC3(CC2)OCCc2sccc23)cc1 | 0.2 µM (≈ 0.0627 µg/mL) | > 30 mL/min/g | 22.5 mL/min/g |  |
| FS(F)(F)(F)(F)c1ccc(CN2CCC3(CC2)OCCc2sccc23)cc1 | 0.14 µM (≈ 0.0596 µg/mL) | 18.2 mL/min/g | 3 mL/min/g |  |
| c1ccc2c(CN3CCC4(CC3)OCCc3sccc34)c[nH]c2c1 | 0.94 µM (≈ 0.318 µg/mL) | 7 mL/min/g | 3.1 mL/min/g |  |
| Cc1cc(CN2CCC3(CC2)OCCc2sccc23)c(C)n1-c1ccc(F)cc1 | 3 µM (≈ 1.23 µg/mL) |  |  |  |

| Compound | MIC90 [1] | CLH [2] | CLH [3] | also measured |
| --- | --- | --- | --- | --- |
| c1ccc2oc(CN3CCC4(CC3)OCCc3sccc34)cc2c1 | 2.7 µM (≈ 0.917 µg/mL) |  |  |  |
| c1cc2c(s1)CCOC2CCNCc1ccc2c(c1)OCCO2 (configuration not stated) | > 5 µM |  |  |  |
| Cn1cc(CN2CCC3(CC2)OCCc2sccc23)c2ccccc21 | 0.63 µM (≈ 0.222 µg/mL) | > 30 mL/min/g | 4.5 mL/min/g |  |
| c1ccc2oc(CN3CCC4(CC3)OCCc3ccsc34)cc2c1 | > 100 µM |  |  |  |
| Cc1ccc(CN2CCC3(CC2)OCCc2sccc23)[nH]1 | > 5 µM | 28.7 mL/min/g | 4.1 mL/min/g |  |
| c1ccc2c3c([nH]c2c1)C1(CCN(Cc2ccc4c(c2)OCCO4)CC1)OCC3 | 93 µM (≈ 36.3 µg/mL) |  |  |  |
| c1cc2c(s1)CCOC21CCN(Cc2ccc3c(c2)OCCO3)C1 (configuration not stated) | > 5 µM |  |  |  |
| Cc1ccc(CN2CCC3(CC2)OCCc2sccc23)cc1C | 0.08 µM (≈ 0.0262 µg/mL) | > 30 mL/min/g | 18.9 mL/min/g |  |
| c1ccc(CN2CCC3(CC2)OCCc2sccc23)cc1 | > 5 µM |  |  |  |
| Cc1cc(CN2CCC3(CC2)OCCc2sccc23)c(C)n1-c1ccccc1 | 3 µM (≈ 1.18 µg/mL) |  |  |  |
| Cc1cc(CN2CCC3(CC2)OCCc2sccc23)c(C)n1-c1cccnc1 | 14 µM (≈ 5.51 µg/mL) |  |  |  |
| Clc1ccc2c(CN3CCC4(CC3)OCCc3sccc34)c[nH]c2c1 | 0.31 µM (≈ 0.116 µg/mL) | 10.3 mL/min/g | 1.3 mL/min/g |  |
| Cc1cc(CN2CCC3(CC2)OCCc2sccc23)c(C)n1-c1ccccn1 | 14 µM (≈ 5.51 µg/mL) |  |  |  |
| O=S(=O)(c1ccc2c(c1)OCCO2)N1CCC2(CC1)OCCc1sccc12 | > 10 µM |  |  |  |
| Cc1ccccc1CN1CCC2(CC1)OCCc1sccc12 | > 5 µM |  |  |  |
| COc1ccc(-n2c(C)cc(CN3CCC4(CC3)OCCc3sccc34)c2C)cc1 | 3 µM (≈ 1.27 µg/mL) |  |  |  |
| CC(c1ccc(C(F)(F)F)cc1)N1CCC2(CC1)OCCc1sccc12 (configuration not stated) | 0.63 µM (≈ 0.24 µg/mL) | 18.1 mL/min/g | 4.6 mL/min/g |  |
